In general, IC50 refers to the midpoint of a concentration-inhibition curve. The IC90 is the concentration needed for an effect of 90%.

The structures appear in SMILES notation.

The assay has as its system Plasmodium berghei. Nature of the assay: Luciferase/luciferin-expressing antifolate-resistant parasites were used to infect a culture of HepG2 cells that were pre-incubated with compounds. Infected hepatocytes emit light due to the luciferase reaction. Assay results are presented as the percent inhibition of light emission compared to control. […]. The assay is classed as functional. The settings on record: sporozoite; for IC90: read-out: LUCIFERASE INFECTION ASSAY - IC90.

Regarding `COc1ccc(Nc2nnc(SCc3cn4c(C)cccc4n3)s2)cc1`, the IC90 was determined as 3.76 µM. For the same molecule, the 50% inhibitory concentration (IC50) (HEPG2TOX_HILL_SLOPE 1.62, HEPG2TOX_R_SQUARED 0.963, PBLUC_HILL_SLOPE 37.7, PBLUC_R_SQUARED 0.0792, read-out: LUCIFERASE INFECTION ASSAY - IC50) turned out to be 3.55 µM.

For the molecule `CC(C)c1ccc(NC(=O)c2csc(Cc3c(Cl)cccc3Cl)n2)cc1`, the IC90 was determined as 8.08 µM. Moreover, the half-maximal inhibitory concentration (IC50) (HEPG2TOX_HILL_SLOPE 1.62, HEPG2TOX_R_SQUARED 0.849, PBLUC_HILL_SLOPE 1.9, PBLUC_R_SQUARED 0.639, read-out: LUCIFERASE INFECTION ASSAY - IC50) is 2.55 µM.

Turning to `OC1CCC(Nc2ccc3ncc(Br)n3n2)CC1` (stereo not drawn), the concentration for an effect of 90% (IC90) was more than 10.6 µM. In addition, the 50% inhibitory concentration (IC50) (HEPG2TOX_HILL_SLOPE 1.63, HEPG2TOX_R_SQUARED 0.931, read-out: LUCIFERASE INFECTION ASSAY - IC50) was more than 10.6 µM.

Turning to `CC(C)(C)c1ccc(OS(=O)(=O)c2ccc(-c3csnn3)s2)cc1`, the IC90 is more than 8.67 µM. For the same molecule, for the setting “HEPG2TOX_HILL_SLOPE 1.63, HEPG2TOX_R_SQUARED 0.666, PBLUC_HILL_SLOPE 2.62, PBLUC_R_SQUARED 0.635, read-out: LUCIFERASE INFECTION ASSAY - IC50”, the IC50 was 5.74 µM.

On to `CC(C)n1ncc2cc(C(=O)Nc3nc(-c4cccnc4)cs3)cnc21`, for which the IC90 is more than 10 µM. Moreover, the IC50 (HEPG2TOX_HILL_SLOPE 1.63, HEPG2TOX_R_SQUARED 0.918, read-out: LUCIFERASE INFECTION ASSAY - IC50) was more than 10 µM.

With `Cc1cc(C(=O)C[n+]2ccc(N(C)C)cc2)c(C)n1Cc1ccccc1`, the IC90 turned out to be 4.24 µM. Moreover, the half-maximal inhibitory concentration (IC50) (HEPG2TOX_HILL_SLOPE 1.63, HEPG2TOX_R_SQUARED 0.735, PBLUC_HILL_SLOPE 13.8, 4.61, PBLUC_R_SQUARED 0.572, 0.235, read-out: LUCIFERASE INFECTION ASSAY - IC50) was 3.09 µM.

For the molecule `Cc1nn(Cc2ccccc2)c(Cl)c1C(=O)Nc1nnc(-c2ccccc2)o1`, the concentration for an effect of 90% (IC90) was found to be 4.08 µM. Besides, under “HEPG2TOX_HILL_SLOPE 1.65, HEPG2TOX_R_SQUARED 0.7, PBLUC_HILL_SLOPE 2.41, 3.47, PBLUC_R_SQUARED 0.702, 0.681, read-out: LUCIFERASE INFECTION ASSAY - IC50”, the half-maximal inhibitory concentration (IC50) worked out at 1.84 µM.

In the case of `Clc1ccccc1-c1nc2ccnc(NCc3ccccc3)c2[nH]1`, the IC90 is 4.04 µM. Moreover, the half-maximal inhibitory concentration (IC50) (HEPG2TOX_HILL_SLOPE 1.64, HEPG2TOX_R_SQUARED 0.835, PBLUC_HILL_SLOPE 9.56, PBLUC_R_SQUARED 0.749, read-out: LUCIFERASE INFECTION ASSAY - IC50) came out at 3.21 µM.

As to `OC(/C(=N/Nc1ncnc2ccccc12)c1ccccc1)c1ccccc1` (stereo not drawn), the 90% effect concentration (IC90) came out at 6.04 µM. Besides, the IC50 (HEPG2TOX_HILL_SLOPE 1.63, HEPG2TOX_R_SQUARED 0.814, PBLUC_HILL_SLOPE 71.4, PBLUC_R_SQUARED 0.509, read-out: LUCIFERASE INFECTION ASSAY - IC50) worked out at 5.86 µM.

For the molecule `O=C(NCCO)c1cccc(-c2ccc3ncc(-c4ccc5c(c4)OCO5)n3n2)c1`, the IC90 turned out to be 3.86 µM. Besides, where the note is “HEPG2TOX_HILL_SLOPE 1.62, HEPG2TOX_R_SQUARED 0.792, PBLUC_HILL_SLOPE 12.2, PBLUC_R_SQUARED 0.362, read-out: LUCIFERASE INFECTION ASSAY - IC50”, the half-inhibitory concentration (IC50) amounted to 3.22 µM.

As to `CC(=O)c1c(C)[nH]c(C(=O)OCC(=O)/C=C2\N(C)c3ccccc3C2(C)C)c1C`, the IC90 was more than 10 µM. The half-maximal inhibitory concentration (IC50) (HEPG2TOX_HILL_SLOPE 1.65, HEPG2TOX_R_SQUARED 0.38, PBLUC_HILL_SLOPE 17.8, PBLUC_R_SQUARED 0.202, read-out: LUCIFERASE INFECTION ASSAY - IC50) worked out at 9.63 µM.

Turning to `O=[N+]([O-])c1ccc(C(O)CNc2ccccc2S(=O)(=O)C(F)(F)F)cc1` (stereo not drawn), the IC90 was 1.21 µM. Further, the half-inhibitory concentration (IC50) (HEPG2TOX_HILL_SLOPE 1.62, HEPG2TOX_R_SQUARED 0.763, PBLUC_HILL_SLOPE 5.41, PBLUC_R_SQUARED 0.533, read-out: LUCIFERASE INFECTION ASSAY - IC50) is 0.807 µM.

On to `O=C(c1[nH]c2ccccc2c1-c1ccccc1)N1CCOCC1`, for which the IC90 turned out to be 8.74 µM. Moreover, the 50% inhibitory concentration (IC50) (HEPG2TOX_HILL_SLOPE 1.63, HEPG2TOX_R_SQUARED 0.942, PBLUC_HILL_SLOPE 2.32, PBLUC_R_SQUARED 0.78, read-out: LUCIFERASE INFECTION ASSAY - IC50) was found to be 3.39 µM.

Turning to `CCc1ccc(-c2nnc(SC(C)C(=O)NC3CCCCC3)[nH]2)cc1` (stereo not drawn), the concentration for an effect of 90% (IC90) was more than 10 µM. The IC50 (HEPG2TOX_HILL_SLOPE 1.62, HEPG2TOX_R_SQUARED 0.795, read-out: LUCIFERASE INFECTION ASSAY - IC50) was more than 10 µM.

As for `CC(C)c1cccc(NS(=O)(=O)c2c[nH]c(C(=O)N3CCCC3)c2)c1`, the IC90 was more than 10 µM. In addition, the IC50 (HEPG2TOX_HILL_SLOPE 1.65, HEPG2TOX_R_SQUARED 0.259, read-out: LUCIFERASE INFECTION ASSAY - IC50) was more than 10 µM.

On to `O=C(CN1CC=C(c2ccccc2)CC1)Nc1ccnn1C1CCCC1`, for which the IC90 is more than 10 µM. Also, the half-inhibitory concentration (IC50) (HEPG2TOX_HILL_SLOPE 1.62, HEPG2TOX_R_SQUARED 0.847, PBLUC_HILL_SLOPE 1.87, PBLUC_R_SQUARED 0.673, read-out: LUCIFERASE INFECTION ASSAY - IC50) is 5.98 µM.

In the case of `CCn1c2ccccc2c2cc(NC(=O)C3CCCN(c4ncccn4)C3)ccc21` (stereo not drawn), the 90% effect concentration (IC90) worked out at 2.28 µM. Also, under “HEPG2TOX_HILL_SLOPE 1.64, HEPG2TOX_R_SQUARED 0.977, PBLUC_HILL_SLOPE 1.41, PBLUC_R_SQUARED 0.865, read-out: LUCIFERASE INFECTION ASSAY - IC50”, the IC50 amounted to 0.477 µM.

As to `COc1cccc(-c2nc3ccnc(NCc4ccccc4)c3[nH]2)c1`, the concentration for an effect of 90% (IC90) was 7.99 µM. Further, the concentration for half-maximal inhibition (IC50) (HEPG2TOX_HILL_SLOPE 1.62, HEPG2TOX_R_SQUARED 0.805, PBLUC_HILL_SLOPE 1.55, PBLUC_R_SQUARED 0.567, read-out: LUCIFERASE INFECTION ASSAY - IC50) turned out to be 1.93 µM.

As to `O=C(c1ccco1)N1CCc2nc(NCc3cccc(Oc4ccccc4)c3)ncc2C1`, the IC90 came out at 2.99 µM. Also, the IC50 (HEPG2TOX_HILL_SLOPE 1.64, HEPG2TOX_R_SQUARED 0.989, PBLUC_HILL_SLOPE 13.2, PBLUC_R_SQUARED 0.473, read-out: LUCIFERASE INFECTION ASSAY - IC50) was found to be 2.53 µM.

As for `Cc1cc(-c2cn3c(-c4ccc(CO)cc4)cnc3cn2)cc(C)c1O`, the concentration for an effect of 90% (IC90) turned out to be 4.31 µM. Under “HEPG2TOX_HILL_SLOPE 1.62, HEPG2TOX_R_SQUARED 0.965, PBLUC_HILL_SLOPE 8.31, PBLUC_R_SQUARED 0.637, read-out: LUCIFERASE INFECTION ASSAY - IC50”, the concentration for half-maximal inhibition (IC50) came to 3.31 µM.

Regarding `COc1cc(/C=C(\C#N)c2ccc(C)cc2)cc(OC)c1OC`, the IC90 is 4.54 µM. Where the note is “HEPG2TOX_HILL_SLOPE 1.64, HEPG2TOX_R_SQUARED 0.962, PBLUC_HILL_SLOPE 4.59, PBLUC_R_SQUARED 0.528, read-out: LUCIFERASE INFECTION ASSAY - IC50”, the IC50 was found to be 2.82 µM.

As to `N#Cc1ccnc(N2CCN(C(=O)c3cccc(-n4cccc4)c3)CC2)c1`, the concentration for an effect of 90% (IC90) is 2.2 µM. Further, the IC50 (HEPG2TOX_HILL_SLOPE 1.62, HEPG2TOX_R_SQUARED 0.96, PBLUC_HILL_SLOPE 2.46, PBLUC_R_SQUARED 0.842, read-out: LUCIFERASE INFECTION ASSAY - IC50) is 0.901 µM.

`Cc1ccc2nc(NC(=O)c3ccc(F)cc3F)c(C(=O)NC3CCCC3)n2c1`: the IC90 was determined as 2.97 µM. Further, where the note is “HEPG2TOX_HILL_SLOPE 1.63, HEPG2TOX_R_SQUARED 0.945, PBLUC_HILL_SLOPE 15.6, PBLUC_R_SQUARED 0.398, read-out: LUCIFERASE INFECTION ASSAY - IC50”, the IC50 came out at 2.58 µM.

For the molecule `CCc1c(C)sc2nc(SCC(=O)c3cc(C)n(-c4ccc5c(c4)OCO5)c3C)n(CC)c(=O)c12`, the IC90 was more than 10 µM. For the same molecule, the IC50 (HEPG2TOX_HILL_SLOPE 1.63, HEPG2TOX_R_SQUARED 0.963, PBLUC_HILL_SLOPE 1.91, PBLUC_R_SQUARED 0.412, read-out: LUCIFERASE INFECTION ASSAY - IC50) came out at 3.47 µM.

As for `Oc1cccc(-c2cnc3cnc(-c4ccc(Cl)cc4Cl)cn23)c1`, the IC90 was 2.14 µM. For the same molecule, the 50% inhibitory concentration (IC50) (HEPG2TOX_HILL_SLOPE 1.62, HEPG2TOX_R_SQUARED 0.949, PBLUC_HILL_SLOPE 1.81, PBLUC_R_SQUARED 0.693, read-out: LUCIFERASE INFECTION ASSAY - IC50) was 0.634 µM.

With `O=C1/C(=N\O)c2ccccc2N1Cc1cc(C(F)(F)F)cc(C(F)(F)F)c1`, the 90% effect concentration (IC90) worked out at 2.62 µM. Also, the IC50 (HEPG2TOX_HILL_SLOPE 1.63, HEPG2TOX_R_SQUARED 0.96, PBLUC_HILL_SLOPE 1.81, PBLUC_R_SQUARED 0.672, read-out: LUCIFERASE INFECTION ASSAY - IC50) stood at 0.78 µM.

As for `COc1ccc(CC(=O)N2CCN(C)c3nc4ccccc4nc32)cc1F`, the IC90 was determined as 9.57 µM. For the setting “HEPG2TOX_HILL_SLOPE 1.64, HEPG2TOX_R_SQUARED 0.943, PBLUC_HILL_SLOPE 1.87, PBLUC_R_SQUARED 0.437, read-out: LUCIFERASE INFECTION ASSAY - IC50”, the IC50 came to 2.96 µM.

`NS(=O)(=O)c1ccc(CNc2ccc3ncc(-c4ccc(Cl)cc4)n3n2)cc1`: the IC90 was 1.19 µM. Besides, the IC50 (HEPG2TOX_HILL_SLOPE 1.64, HEPG2TOX_R_SQUARED 0.894, PBLUC_HILL_SLOPE 9.33, PBLUC_R_SQUARED 0.776, read-out: LUCIFERASE INFECTION ASSAY - IC50) stood at 0.942 µM.

As to `Cn1ccnc1C(=O)NNc1ncc(C(F)(F)F)cc1Cl`, the IC90 is 1.21 µM. The IC50 (HEPG2TOX_HILL_SLOPE 1.64, HEPG2TOX_R_SQUARED 0.948, PBLUC_HILL_SLOPE 15.2, PBLUC_R_SQUARED 0.698, read-out: LUCIFERASE INFECTION ASSAY - IC50) is 1.04 µM.

The values are drawn from ChEMBL document CHEMBL4483862, “Open-source discovery of chemical leads for next-generation chemoprotective antimalarials” (2018).
